Tests used:
Type in all cases: in vivo
[1] = tested on: corn plants, commercial 111 day, central corn belt variety; experiment: Corn plant leaf rolling assay and shoot fresh weight under drought; details: for Shoot Fresh Weight, 15 DAS: 12 days drought then 3 days watering; for Average # of Rolled Leaves/Plant, 5 DAS / Average # of Rolled Leaves/Plant, 6 DAS / Average # of Rolled Leaves/Plant, 8 DAS: water withheld; for Average # of Rolled Leaves/Plant, 5 DAS: 5 days after spraying; for Average # of Rolled Leaves/Plant, 6 DAS: 6 days after spraying; for Average # of Rolled Leaves/Plant, 8 DAS: 8 days after spraying
Procedure: (§1) In this greenhouse experiment, foliar spray treatments containing 3′-methyl-(S)-abscisic acid, 3′-propargyl-(S)-abscisic acid or (S)-abscisic acid were applied to corn plants to evaluate their effect on gas exchange, as measured through stomatal conductance. Corn plants of a commercial, 111 day, central corn belt variety were grown in the greenhouse under optimal conditions for five weeks and were size-matched into ten groups of five plants. Using an aerosol sprayer, each group was sprayed to drip (25 milliliters per plant) with solutions containing a non-ionic surfactant (0.125%, v/v) and water (control), 2.5 mg, 7.5 mg or 25 mg/plant 3′-methyl-(S)-abscisic acid, or 2.5 mg, 7.5 mg or 25 mg/plant 3′-propargyl-(S)-abscisic acid, or 7.5 mg, 25 mg or 75 mg/plant (5)-ABA, respectively. After spraying, plants were returned to the greenhouse for the duration of the experiment. Stomatal conductance was measured using an AP4 porometer (Delta T Devices, Cambridge, UK) and the conductance for each plant was recorded at approximately the same time of day (˜10 AM) prior to treatment application as well as 1, 2, 5, 6, 9 and 16 days post-spraying. This study was conducted as described above with the following the exceptions. After spraying, plants were put back in the greenhouse and water was withheld for twelve days, simulating drought stress. The plants were then watered to saturation for three consecutive days before the plant shoots were cut at the soil surface and subsequently weighed in grams (fresh weight). Leaf-rolling data and fresh weight data were recorded for each plant following treatment application at the times specified below in Table 6.

soybean plants = experiment: Soybean drought tolerance (stomatal conductance)
Procedure: In this study, soybean plants were grown for 10 days under ambient lab temperature conditions and illumination of 150 umol m^2 s^−1 and a 16:8 photoperiod. At spraying, the primary leaves were fully expanded and the first trifoliate leaves were partially expanded. The plants were sprayed to dampness with solutions of water, S-ABA, 3′-methyl-(S)-abscisic acid, or 3′-propargyl-(S)-abscisic acid containing 0.025% (v/v) non-ionic surfactant. At times following spraying, the conductance of the primary leaves was measured using an AP4 porometer (Delta T Devices, Cambridge, UK) to evaluate the effect on stomatal conductance. A decrease in stomatal aperture, reflected in the conductance measures, is an immediate and direct effect of applied S-ABA. To simplify the data, the controls were always set to 100%. In Table 9, the effect of spray applications on the stomatal conductance was measured.

[2] = tested on: corn plants, commercial 111 day, central corn belt variety; experiment: Corn stomatal conductance; details: for Average Stomatal Conductance (% of Control), 6 DAS: 6 days after spraying; for Average Stomatal Conductance (% of Control), 16 DAS: 16 days after spraying
Procedure: as §1, with “post-spraying.” for “post-spraying. This study was conducted as described above with the following the exceptions. After spraying, plants were put back in the greenhouse and water was withheld for twelve days, simulating drought stress. The plants were then watered to saturation for three consecutive days before the plant shoots were cut at the soil surface and subsequently weighed in grams (fresh weight). Leaf-rolling data and fresh weight data were recorded for each plant following treatment application at the times specified below in Table 6.”

[3] = tested on: corn plants, 111 day, central corn belt variety; experiment: Corn plant chilling (growth rate); details: for Growth Rate, Greenhouse 7-9 d post spray / Growth Rate, Greenhouse 0-2 d post spray / Growth Rate, Growth Chamber 10° C. 2-7 d post spray: foliar spray 1000 mg/l (113.7 g/acre); for Growth Rate, Greenhouse 7-9 d post spray: after chilling; for Growth Rate, Greenhouse 0-2 d post spray: before chilling; for Growth Rate, Growth Chamber 10° C. 2-7 d post spray: during chilling at 10° C.
Procedure: Corn seeds of a 111 day, central corn belt variety were planted in 2-quart pots filled with medium. After the corn grew for 10 days in the greenhouse at 24±3° C. (V2 to V3 growth stage), the plants received a foliar spray application of aqueous solutions of the test compounds containing 0.25% non-ionic surfactant with a volume equivalent to 30 gallons/acre. After spraying, plants were moved back to the greenhouse for 2 days, then moved to a growth chamber kept at 10° C. with a 16:8 light:dark cycle (cold treatment). After 5 days in the cold, plants were returned to the greenhouse for 2 days before being harvested destructively. Results of the studies comparing the growth rate of plants treated with S-ABA with 3′-methyl-(S)-ABA during the experiment are shown in Table 3. In additional studies, the effect of S-ABA and 3′-propargyl-(S)-ABA on corn growth rate in chilling studies was compared.

[4] = foliar spray 300 mg/l, 0.3 mg/plant
[5] = foliar spray 1000 mg/l, 1.0 mg/plant
[6] = foliar spray 300 ppm or 7.5 mg/plant
[7] = foliar spray 1000 ppm or 25 mg/plant
[8] = foliar spray 3000 ppm or 75 mg/plant

CC1=CC(=O)CC(C)(C)[C@@]1(O)/C=C/C(C)=C/C(=O)O [S-ABA, (S)-abscisic acid]
Shoot Fresh Weight, 15 DAS ([1]; 300 ppm or 7.5 mg/plant): 258.9 grams | Average # of Rolled Leaves/Plant, 5 DAS ([1]; 300 ppm or 7.5 mg/plant): 2.8 | Average # of Rolled Leaves/Plant, 6 DAS ([1]; 300 ppm or 7.5 mg/plant): 2.6 | Average # of Rolled Leaves/Plant, 8 DAS ([1]; 300 ppm or 7.5 mg/plant): 8.4 | Shoot Fresh Weight, 15 DAS ([1]; 1000 ppm or 25 mg/plant): 282.5 grams | Average # of Rolled Leaves/Plant, 5 DAS ([1]; 1000 ppm or 25 mg/plant): 1.2 | Average # of Rolled Leaves/Plant, 6 DAS ([1]; 1000 ppm or 25 mg/plant): 3.0 | Average # of Rolled Leaves/Plant, 8 DAS ([1]; 1000 ppm or 25 mg/plant): 8.8 | Shoot Fresh Weight, 15 DAS ([1]; 3000 ppm or 75 mg/plant): 301.7 grams | Average # of Rolled Leaves/Plant, 5 DAS ([1]; 3000 ppm or 75 mg/plant): 0.0 | Average # of Rolled Leaves/Plant, 6 DAS ([1]; 3000 ppm or 75 mg/plant): 0.2 | Average # of Rolled Leaves/Plant, 8 DAS ([1]; 3000 ppm or 75 mg/plant): 7.2 | Effectiveness at reducing leaf rolling ([1]; S-ABA 75 mg/plant compared with 25 mg of the derivatives): as effective at reducing leaf rolling as 25 mg of 3′-methyl-(S)-abscisic acid, or 3′-propargyl-(S)-abscisic acid | Reduction in stomatal conductance at 1 day post spraying (soybean plants; 300 mg/l foliar spray): 58% | Time of 50% recovery of the control conductance (soybean plants; 300 mg/l foliar spray): ≤ 2 days | Time of greater than 50% recovery of the control conductance (soybean plants; 1000 mg/l foliar spray): 5 days | Percent Conductance (stomatal conductance, control = 100%), Day 1 (soybean plants; [4]): 42% | Percent Conductance (stomatal conductance, control = 100%), Day 2 (soybean plants; [4]): 56% | Percent Conductance (stomatal conductance, control = 100%), Day 5 (soybean plants; [4]): 80% | Percent Conductance (stomatal conductance, control = 100%), Day 6 (soybean plants; [4]): 108% | Percent Conductance (stomatal conductance, control = 100%), Day 7 (soybean plants; [4]): 122% | Percent Conductance (stomatal conductance, control = 100%), Day 1 (soybean plants; [5]): 27% | Percent Conductance (stomatal conductance, control = 100%), Day 2 (soybean plants; [5]): 32% | Percent Conductance (stomatal conductance, control = 100%), Day 5 (soybean plants; [5]): 58% | Percent Conductance (stomatal conductance, control = 100%), Day 6 (soybean plants; [5]): 80% | Percent Conductance (stomatal conductance, control = 100%), Day 7 (soybean plants; [5]): 118% | Average Stomatal Conductance (% of Control), 6 DAS [2, 6]: 88.5 % of Control | Average Stomatal Conductance (% of Control), 16 DAS [2, 6]: 89.3 % of Control | Average Stomatal Conductance (% of Control), 6 DAS [2, 7]: 83.7 % of Control | Average Stomatal Conductance (% of Control), 16 DAS [2, 7]: 88.0 % of Control | Average Stomatal Conductance (% of Control), 6 DAS [2, 8]: 61.3 % of Control | Average Stomatal Conductance (% of Control), 16 DAS [2, 8]: 62.5 % of Control | Growth during stress recovery following cold ([3]; 3′-propargyl-(S)-ABA particularly between 11.4 and 113.7 g/acre, S-ABA at rates up to 1000 mg/liter (113.7 g/acre)): did not aid recovery growth | Maintenance of growth under cold (10° C.) conditions ([3]; S-ABA even at 1000 mg/l (113.7 g/acre)): did not maintain growth | Growth Rate, Greenhouse 7-9 d post spray ([3]; Table 3 study): 3.270 cm/day | Growth Rate, Greenhouse 0-2 d post spray ([3]; Table 3 study): 4.315 cm/day | Growth Rate, Growth Chamber 10° C. 2-7 d post spray ([3]; Table 3 study): 0.766 cm/day | Growth Rate, Greenhouse 7-9 d post spray ([3]; Table 4 study): 2.161 cm/day | Growth Rate, Greenhouse 0-2 d post spray ([3]; Table 4 study): 3.156 cm/day | Growth Rate, Growth Chamber 10° C. 2-7 d post spray ([3]; Table 4 study): 1.249 cm/day | Leaf area ([3]; in one of two studies, not repeatable across studies, 3′-methyl-(S)-abscisic acid at 30, 100 and 300 mg/liter): increased

— patent US10314307B2, “(S)-abscisic acid derivatives for improving plant stress tolerance” (Valent BioSciences Corporation, priority 2015, dated 2019)
